Values of other authors in PMC4010828 (mBio, 2014).

Test system: sensitive E. coli cells

microcin C (MRTGNAN; C-terminal adenylate, aminopropyl phosphoramidate) [McC]
Concentration that inhibits the growth of sensitive E. coli cells: low micromolar concentrations
